Assay results taken from patent US8088805B2, “Inhibitors of histone deacetylase” (MethylGene Inc., priority 2004, dated 2012).

Key:
[1] = molecular target: Human HDAC-1 (Homo sapiens, UniProt Q13547); experiment: HDAC-1 enzymatic inhibition, Assay 2 (Boc-Lys(Ac)-AMC, Fluor-de-Lys); format: biochemical; conditions: Assay 2: Boc-Lys(Ac)-AMC substrate, fluorescence; read-out: HDAC1 IC50
Method: Assay 2. The following protocol was also used to assay the compounds of the invention. In the assay, the buffer used was 25 mM HEPES, pH 8.0, 137 mM NaCl, 2.7 mM KCl, 1 mM MgCl2 and the substrate was Boc-Lys(Ac)-AMC in a 50 mM stock solution in DMSO. The enzyme stock solution was 4.08 μg/mL in buffer. The compounds were pre-incubated (2 μl in DMSO diluted to 13 μl in buffer for transfer to assay plate) with enzyme (20 μl of 4.08 μg/ml) for 10 minutes at room temperature (35 μl pre-incubation volume). The mixture was pre-incubated for 5 minutes at room temperature. The reaction was started by bringing the temperature to 37° C. and adding […] substrate. Total reaction volume was 50 μl. The reaction was stopped after 20 minutes by addition of 50 μl developer, prepared as directed by Biomol (Fluor-de-Lys developer, Cat. # KI-105). A plate was incubated in the dark for 10 minutes at room temperature before reading (λEx=360 nm, λEm=470 nm, Cutoff filter at 435 nm).
Assay 1 was used to measure HDAC activity of compounds 10c, 13e, 16d, 26b, 44, 47, 61a, 61b, 63, 134, 138, and 308. Assay 2 was used to measure HDAC activity of compounds 361, 366, 367, 368, 369, 370, 371, 372, 373, 374, 375, 376, 377, and 378. In Table 14, “a” indicates activity of ≦0.1 μM, “b” indicates activity of ≦1 μM, “c” indicates activity of ≦5 μM, and “d” indicates activity of >5 μm. For the H4-Ac T24 EC vs. MS-275 assay in Table 14, “u” indicates less than 1, “v” indicates 1, and “w” indicates greater than 1. For the H3 Ac t24 assay in Table 14, “x” indicates activity of ≦1 μM, “y” indicates activity of ≦10 μM, and “z” indicates activity of ≦20 μM.

[2] = test system: Histone H3 acetylation in T24 human bladder cancer cells; experiment: Histone H3 acetylation assay; format: cell-based; conditions: T-24, 16 h, concentration giving 50% of Emax of MS-275, read-out: H3 Ac t24
Method: T24 human bladder cancer cells growing in culture are incubated with HDAC inhibitors for 16 h. Cell viability is determined by adding 10 μl Alamar Blue (BioSource, DAL1100). Cells are washed once with PBS and fixed with methanol precooled to −20° C. for 10 min. The cells are then washed twice in PBS. The fixed cells are blocked with 50 μl of PBS+0.1% Triton X-100. Cells are probed with rabbit-anti-acetyl-H3 (Upstate #06-599) as the primary antibody and then with goat-anti-rabbit-HRP (Sigma #A-0545) as the secondary antibody. Fluorescence is read by fluorometer at Ex:550, Em:610, Cutoff:590 (Auto PMT, 15 reads/well) after addition of Amplex-Red. Fluorescence signal is normalized against cell viability derived from Alamar Blue. Maximum acetylation signal of MS-275 (fluorescence unit) is measured as Emax. The concentration of compound which gives 50% of Emax is EC50. In Table 14, “x” indicates activity of ≦1 μM, “y” indicates activity of ≦10 μM, and “z” indicates activity of ≦20 μM.

[3] = test system: HCT116 cells; experiment: MTT assay; format: cell-based; conditions: Homo sapiens, HCT-116, 72 hours
Method: HCT116 cells (2000/well) were plated into 96-well tissue culture plates one day before compound treatment. Compounds at various concentrations were added to the cells. The cells were incubated for 72 hours at 37° C. in 5% CO2 incubator. MTT (3-[4,5-dimethylthiazol-2-yl]-2,5diphenyl tetrazolium bromide, Sigma) was added at a final concentration of 0.5 mg/ml and incubated with the cells for 4 hours before one volume of solubilization buffer (50% N,N-dimethylformamide, 20% SDS, pH 4.7) was added onto the cultured cells. After overnight incubation, solubilized dye was quantified by colorimetric reading at 570 nM using a reference at 630 nM using an MR700 plate reader (Dynatech Laboratories Inc.). OD values were converted to cell numbers according to a standard growth curve of the relevant cell line. The concentration which reduces cell numbers to 50% of that of solvent treated cells is determined as MTT IC50. In Table 14, “a” indicates activity of ≦0.1 μM, “b” indicates activity of ≦1 μM, and “c” indicates activity of ≦5 μM.

[4] = test system: A549 lung cancer cells; experiment: Human tumor xenograft in vivo, A549; conditions: 30 mg/kg ip, mice
Method: (§1) Eight to ten week old female BCD1 mice (Taconic Labs, Great Barrington, N.Y.) were injected subcutaneously in the flank area with 2×10^6 preconditioned HCT116 human colorectal carcinoma cells, SW48 colon cancer cells, and A549 lung cancer cells. Preconditioning of these cells was done by a minimum of three consecutive tumor transplantations in the same strain of nude mice. Subsequently, tumor fragments of approximately 30 mgs were excised and implanted subcutaneously in mice, in the left flank area, under Forene anesthesia (Abbott Labs, Geneva, Switzerland). When the tumors reached a mean volume of 100 mm^3, the mice were treated intraperitoneally by daily injection, with a solution of the histone deacetylase inhibitor in DMSO, at a starting dose of 10 mg/kg. The optimal dose of the HDAC inhibitor was established by dose response experiments according to standard protocols. Tumor volume was calculated every second day post infusion according to standard methods (e.g., Meyer et al., Int. J. Cancer 43: 851-856 (1989)).

[5] = test system: SW48 colon cancer cells; experiment: Human tumor xenograft in vivo, SW48; conditions: Mus musculus, 30 mg/kg ip, mice, read-out: % Inhibition (relative to vehicle control) SW48
Method: as §1

[6] = test system: HCT116 human colorectal carcinoma cells; experiment: Human tumor xenograft in vivo, HCT116; conditions: Mus musculus, HCT-116; 30 mg/kg ip, mice; read-out: % Inhibition (relative to vehicle control) HCT116
Method: as §1

Human HDAC-1, sequence (Q13547 whole entry): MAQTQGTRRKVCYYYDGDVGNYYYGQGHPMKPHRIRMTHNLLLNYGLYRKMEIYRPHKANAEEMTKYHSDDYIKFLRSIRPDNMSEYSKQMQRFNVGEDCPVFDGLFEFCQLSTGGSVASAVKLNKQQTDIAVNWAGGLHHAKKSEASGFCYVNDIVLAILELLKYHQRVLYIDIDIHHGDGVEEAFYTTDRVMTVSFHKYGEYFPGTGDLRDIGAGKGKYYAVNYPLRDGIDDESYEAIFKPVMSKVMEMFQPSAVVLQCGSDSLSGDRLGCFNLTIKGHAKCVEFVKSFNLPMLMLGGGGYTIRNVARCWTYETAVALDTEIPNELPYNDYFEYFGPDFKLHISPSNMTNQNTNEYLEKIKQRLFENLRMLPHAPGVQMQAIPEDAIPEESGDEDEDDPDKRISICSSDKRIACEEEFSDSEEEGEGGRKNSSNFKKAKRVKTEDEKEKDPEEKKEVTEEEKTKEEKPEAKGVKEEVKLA

Nc1ccccc1NC(=O)c1ccc(N2CC[C@H](Oc3ccc4c(c3)OCO4)C2)cc1 [compound 375, (S)—N-(2-Aminophenyl)-4-(3-(benzo[d][1,3]dioxol-5-yloxy)pyrrolidin-1-yl)benzamide]
IC50 [1]: ≤ 100 nM | EC50 [2]: ≤ 1 µM | IC50 [3]: > 5000 nM

CN(C)CC(=O)Nc1ccc2nc(SCc3ccc(C(=O)Nc4ccccc4N)cc3)sc2c1 [compound 158, N-(2-Amino-phenyl)-4-[6-(2-dimethylamino-acetylamino)-benzothiazol-2-ylsulfanylmethyl]-benzamide]
% Inhibition (relative to vehicle control) A549 [4]: 42.6% | inhibition in vivo at 30 mg/kg [5]: 43.2%

CN(C)C(=O)c1ccc(-c2ccnc(NCc3ccc(C(=O)Nc4ccccc4N)cc3)n2)cn1 [29a, 5-{2-[4-(2-Amino-phenylcarbamoyl)-benzylamino]-pyrimidin-4-yl}-pyridine-2-carboxylic acid dimethylamide]
% Inhibition (relative to vehicle control) A549 [4]: 31.8% | inhibition in vivo at 30 mg/kg [5]: 70.2%

COc1ccc(NCc2ccc(C(=O)Nc3ccccc3N)cc2)cc1F [212h, N-(2-Amino-phenyl)-4-[(3-fluoro-4-methoxy-phenylamino)-methyl]-benzamide]
% Inhibition (relative to vehicle control) A549 [4]: 54.4% | inhibition in vivo at 30 mg/kg [5]: 44%

Nc1ccccc1NC(=O)c1ccc(CNc2nccc(-c3ccncc3)n2)cc1 [31b, N-(2-Amino-phenyl)-4-[(4-pyridin-4-yl-pyrimidin-2-ylamino)-methyl]-benzamide]
inhibition in vivo at 30 mg/kg [6]: 39.4% | inhibition in vivo at 30 mg/kg [5]: 47.8%

COCOC(C)(C)c1ccc(-c2ccnc(NCc3ccc(C(=O)Nc4ccccc4N)cc3)n2)cn1 [58b, N-(2-Amino-phenyl)-4-({4-[6-(1-methoxymethoxy-1-methyl-ethyl)-pyridin-3-yl]-pyrimidin-2-ylamino}-methyl)-benzamide]
inhibition in vivo at 30 mg/kg [6]: 29.4% | inhibition in vivo at 30 mg/kg [5]: 34.6%

CCC(=O)Nc1sc(Cc2ccc(C(=O)Nc3ccccc3N)cc2)cc1C(N)=O [compound 296, 5-[4-(2-Amino-phenylcarbamoyl)-benzyl]-2-propionylamino thiophene-3-carboxylic acid amide]
inhibition in vivo at 30 mg/kg [6]: 63.9% | inhibition in vivo at 30 mg/kg [5]: 53.4%

CC(=O)Nc1ccc(NCc2ccc(C(=O)Nc3ccccc3N)cc2)cn1 [212f, 4-[(6-Acetylamino-pyridin-3-ylamino)-methyl]-N-(2-amino-phenyl)-benzamide]
inhibition in vivo at 30 mg/kg [6]: 65.7% | inhibition in vivo at 30 mg/kg [5]: 32.7%

Nc1ccccc1NC(=O)c1ccc(CNc2nccc(-c3ccc(N4CCOCC4)nc3)n2)cc1 [34a, N-(2-Amino-phenyl)-4-{[4-(6-morpholin-4-yl-pyridin-3-yl)-pyrimidin-2-ylamino]-methyl}-benzamide]
% Inhibition (relative to vehicle control) A549 [4]: 67.1% | inhibition in vivo at 30 mg/kg [5]: 25.5%

COc1ccc(CCNc2ccnc(NCc3ccc(C(=O)Nc4ccccc4N)cc3)n2)cc1OC [10a, N-(2-Amino-phenyl)-4-({4-[2-(3,4-dimethoxy-phenyl)-ethylamino]-pyrimidin-2-ylamino}-methyl)-benzamide]
inhibition in vivo at 30 mg/kg [6]: 16.1% | inhibition in vivo at 30 mg/kg [5]: 23%

Nc1ccccc1NC(=O)c1ccc(N2CC[C@H](Oc3cccnc3)C2)cc1 [compound 367, (S)—N-(2-Aminophenyl)-4-(3-(pyridin-3-yloxy)pyrrolidin-1-yl)benzamide]
IC50 [1]: 100 to 1000 nM | EC50 [2]: ≤ 10 µM | IC50 [3]: 100 to 1000 nM

Nc1ccccc1NC(=O)c1ccc(N2CC[C@H](Nc3ccccc3)C2)cc1 [compound 369, (S)—N-(2-Aminophenyl)-4-(3-(phenylamino)pyrrolidin-1-yl)benzamide]
IC50 [1]: 100 to 1000 nM | EC50 [2]: ≤ 1 µM | IC50 [3]: 100 to 1000 nM

Cn1cnc2cc(NCc3ccc(C(=O)Nc4ccccc4N)cc3)ccc21 [compound 252, N-(2-Amino-phenyl)-4-[(1-methyl-1H-benzoimidazol-5-ylamino)-methyl]-benzamide]
inhibition in vivo at 30 mg/kg [6]: 70.6% | inhibition in vivo at 30 mg/kg [5]: 25.9%

Nc1ccccc1NC(=O)c1ccc(N2CC[C@H](Nc3cccnc3)C2)cc1 [compound 361, (S)—N-(2-Aminophenyl)-4-(3-(pyridin-3-ylamino)pyrrolidin-1-yl)benzamide]
IC50 [1]: ≤ 100 nM | EC50 [2]: ≤ 10 µM | IC50 [3]: 100 to 1000 nM

Nc1ccccc1NC(=O)c1ccc(N2CC[C@@H](Nc3cccnc3)C2)cc1 [compound 366, (R)—N-(2-Aminophenyl)-4-(3-(pyridin-3-ylamino)pyrrolidin-1-yl)benzamide]
IC50 [1]: 100 to 1000 nM | EC50 [2]: ≤ 20 µM | IC50 [3]: 1000 to 5000 nM

COc1cc(O[C@H]2CCN(c3ccc(C(=O)Nc4ccccc4N)cc3)C2)cc(OC)c1OC [compound 374, (S)—N-(2-Aminophenyl)-4-(3-(3,4,5-trimethoxyphenoxy)pyrrolidin-1-yl)benzamide]
IC50 [1]: ≤ 100 nM | EC50 [2]: ≤ 1 µM | IC50 [3]: 100 to 1000 nM

Nc1ccccc1NC(=O)c1ccc(N2CC[C@H](Sc3ccccn3)C2)cc1 [compound 378, (S)—N-(2-Aminophenyl)-4-(3-(pyridin-2-ylthio)pyrrolidin-1-yl)benzamide]
IC50 [1]: 100 to 1000 nM | EC50 [2]: ≤ 10 µM | IC50 [3]: 100 to 1000 nM

Nc1ccccc1NC(=O)c1ccc(CSc2nc3cc(F)c(F)cc3[nH]2)cc1 [compound 194, N-(2-Amino-phenyl)-4-(5,6-difluoro-1H-benzoimidazol-2-ylsulfanylmethyl)-benzamide]
inhibition in vivo at 30 mg/kg [6]: 54.5% | inhibition in vivo at 30 mg/kg [5]: 23.1%
